Literature values, collected in patent US20080044452A1, “DRUG DELIVERY SYSTEM FOR TREATMENT OF TRANSITIONAL CELL CARCINOMA” (priority 2006, published 2008).

CO[C@@]12[C@H](COC(N)=O)C3=C(C(=O)C(C)=C(N)C3=O)N1C[C@@H]1N[C@@H]12 [Mitomycin C]
stability in acidic urine: not stable in acidic urine
